Our source for the IC50, T50 and Kd values is ChEMBL document CHEMBL1125886, “Interphenylene 7-oxabicyclo[2.2.1]heptane thromboxane A2 antagonists. Semicarbazone omega-chains” (J Med Chem, 1991).

Data set [1] is filed under the species Homo sapiens. Description: The compound was tested for inhibition of arachidonic acid(800 uM) induced platelet aggregation in human platelet rich plasma. It is filed as functional. As to conditions: read-out: I50.
The test system of data set [2] is Mus musculus. Description: The compound was tested in vivo for duration of action after 0.2 mg/kg peroral administration to protect from U-46,619-induced(2.0 mg/kg, iv) death in mice. The data set is classed as ADME, organism-based. As to conditions: po. The arrangement: dose 0.2 mg/kg, route oral.
For data set [3], the target named is T1, Thromboxane A2 receptor (Homo sapiens, UniProt P21731).
T1 sequence (P21731 whole entry): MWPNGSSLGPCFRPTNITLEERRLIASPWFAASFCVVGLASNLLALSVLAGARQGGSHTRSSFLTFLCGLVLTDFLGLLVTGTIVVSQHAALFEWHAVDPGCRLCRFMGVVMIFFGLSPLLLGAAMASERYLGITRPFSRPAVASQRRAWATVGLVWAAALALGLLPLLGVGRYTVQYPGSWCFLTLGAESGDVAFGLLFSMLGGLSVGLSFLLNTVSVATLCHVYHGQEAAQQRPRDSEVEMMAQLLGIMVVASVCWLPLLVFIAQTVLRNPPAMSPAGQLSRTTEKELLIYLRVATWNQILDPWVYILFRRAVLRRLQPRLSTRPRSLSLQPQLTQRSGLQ
As to the kind of experiment: The compound was tested for inhibition of specific binding of [3H]-SQ 29,548 to thromboxane A2 receptor in human platelet membranes. It is filed as cell membranes.

For data set [4], the species on record is Homo sapiens. Description: The compound was tested for inhibition of U-46,619(10 uM) induced platelet aggregation in human platelet rich plasma(PRP). The data set is classed as functional. As to conditions: read-out: I50.
Data set [5] relates to Mus musculus. As to the kind of experiment: The compound was tested in vivo for duration of action after 10 mg/kg peroral administration to protect from U-46,619-induced(2.0 mg/kg, iv) death in mice. Also noted: dose 10 mg/kg, route oral. As to conditions: po. The data set is classed as ADME, organism-based.

Structures are written as SMILES.

On to `O=C(O)Cc1ccc(CCC2C3CCC(O3)C2/C=N/NC(=O)Nc2ccccc2)cc1` (stereo not drawn), for which the IC50 in data set [1] was found to be 688000 nM.
As usually defined, the Kd is the equilibrium constant for the complex coming apart. Read a high Kd as weaker binding. Molecule `O=C(O)CCc1ccccc1CC1C2CCC(O2)C1/C=N/NC(=O)Nc1ccccc1` (stereo not drawn) displayed a T50 in data set [2] of 16 h. Moreover, the IC50 was determined as 3 nM in data set [1] and 12 nM in data set [4]. The molecule also yielded a Kd in data set [3] of 1 nM.
In the case of `O=C(O)COc1cccc(CC2C3CCC(O3)C2/C=N/NC(=O)Nc2ccccc2)c1` (stereo not drawn), the IC50 in data set [1] was 7200 nM; in data set [4], 25000 nM. The molecule further registered a Kd in data set [3] of 1200 nM.
In the case of `O=C(O)Cc1cccc(CC2C3CCC(O3)C2/C=N/NC(=O)Nc2ccccc2)c1` (stereo not drawn), the T50 stood at 1.7 h in data set [2] and 8.3 h in data set [5]. The figures for the IC50 in data set [1] and in data set [4] were 370 nM and 4600 nM, respectively. For the same molecule, the Kd in data set [3] amounted to 171 nM.
The molecule `O=C(O)CCCc1ccccc1CC1C2CCC(O2)C1/C=N/NC(=O)Nc1ccccc1` (stereo not drawn) came in with a T50 in data set [2] of 8.7 h. Further, the figures for the IC50 in data set [1] and in data set [4] were 12 nM and 72 nM, respectively. The molecule also showed a Kd in data set [3] of 21.1 nM.
With `O=C(O)Cc1ccc(CC2C3CCC(O3)C2/C=N/NC(=O)Nc2ccccc2)cc1` (stereo not drawn), the IC50 in data set [1] is 310000 nM.
Consider `O=C(O)CCC/C=C\CC1C2CCC(O2)C1/C=N/NC(=O)Nc1ccccc1` (stereo not drawn), for which the IC50 came out at 230 nM in data set [1] and 710 nM in data set [4]. This molecule also registered a Kd in data set [3] of 39.4 nM.
Molecule `O=C(O)COc1ccccc1CC1C2CCC(O2)C1/C=N/NC(=O)Nc1ccccc1` (stereo not drawn) registered a T50 in data set [2] of 3.6 h. For the same molecule, the IC50 in data set [1] was 15 nM; in data set [4] it was 46 nM. The Kd in data set [3] came out at 6 nM.
Turning to `O=C(O)Cc1cccc(CCC2C3CCC(O3)C2/C=N/NC(=O)Nc2ccccc2)c1` (stereo not drawn), the values for the IC50 in data set [1] and in data set [4] were 30000 nM and 133000 nM, respectively. For the same molecule, the affinity in data set [3], expressed as Kd, was 1070 nM.
